Test results from ChEMBL document CHEMBL1141171, “Selective estrogen receptor modulators with conformationally restricted side chains. Synthesis and structure-activity relationship of ERalpha-selective tetrahydroisoquinoline ligands” (J Med Chem, 2005).

Key:
[1] = Total clearance of compound in rat after administration of 1 mg/kg (iv) and 5 mg/kg (po); type: ADME, organism-based; details: in vivo
[2] = Maximum plasma concentration of compound in rat after peroral administration of 5 mg/kg; type: ADME, organism-based; set-up: dose 5 mg/kg, route oral; details: po
[3] = Steady state volume of distribution in rat after administration of 1 mg/kg (iv) and 5 mg/kg (po); type: ADME, organism-based; details: in vivo, read-out: Vss
[4] = in vivo; details: rat, po, 5 mg/kg

Row | Compound | clearance [1] [mL/min/kg] | Cmax [2] [nM] | Vd [3] [L/kg] | bioavailability [4] [%]
1 | O=C(c1ccc(OCCN2CCCCC2)cc1)c1c(-c2ccc(O)cc2)sc2cc(O)ccc12 [RALOXIFENE] | 158 | 7.5 | 17.6 | 
2 | Oc1ccc2c(c1)CCN(c1ccccc1)C2c1ccc(OCCN2CCCCC2)cc1 (stereo unspecified) | 51.9 | 31 | 13.8 | 
3 | CN1CCC(c2ccc(C3c4ccc(O)cc4CCN3c3ccc(F)cc3)cc2)CC1 (stereo unspecified) | 52.4 | 26.5 | 15.8 | 64
4 | Oc1ccc2c(c1)CC[C@H](c1ccccc1)[C@@H]2c1ccc(OCCN2CCCC2)cc1 [LASOFOXIFENE] | 55.7 | 15.5 | 14.7 | 
5 | CC(C)N1CCN(c2ccc(C3c4ccc(O)cc4CCN3c3cccc(O)c3)cc2)CC1 (stereo unspecified) | 17.9 | 57.2 | 5 | 44
6 | Oc1ccc2c(c1)CCN(c1ccccc1)C2c1ccc(N2CCN3CCCCC3C2)cc1 (stereo unspecified) | 28.4 | 29.7 | 9.2 | 49
